Measurements from patent US11779564B2, “Methods and compositions for treating bile acid diarrhea, diarrhea associated with small intestine resection or gallbladder removal, and short bowel syndrome” (NAPO PHARMACEUTICALS, INC., priority 2017, dated 2023).

Key:
[1] = test system: chronic diarrhea in patient with SBS; assay: Case report: SBS patient with chronic diarrhea (Example 1); conditions: same patient, attempted for 12 years before crofelemer
[2] = in vivo, cited from earlier work

| Compound | effectiveness in relieving diarrhea symptoms (earlier treatments) [1] | systemic bioavailability ([2]; human) | absorption from the GI tract [2] | tolerability [2] |
| --- | --- | --- | --- | --- |
| CCOC(=O)C1(c2ccccc2)CCN(CCC(C#N)(c2ccccc2)c2ccccc2)CC1 [diphenoxylate] | None of which were effective |  |  |  |
| crofelemer |  | virtually no systemic bioavailability | little or no absorption | well tolerated |
| COc1ccc2c3c1O[C@H]1[C@@H](O)C=C[C@H]4[C@@H](C2)N(C)CC[C@@]341 [codeine] | None of which were effective |  |  |  |
| CN(C)C(=O)C(CCN1CCC(O)(c2ccc(Cl)cc2)CC1)(c1ccccc1)c1ccccc1 [loperamide] | None of which were effective |  |  |  |
| CN1[C@@H]2CC[C@H]1C[C@@H](OC(=O)C(CO)c1ccccc1)C2 (stereo partly shown) [atropine] | None of which were effective |  |  |  |
